How the values of the data set were obtained:
The term “water insoluble pharmaceutical” means a pharmaceutical active ingredient that is insoluble or nearly insoluble in water with a dose number greater than 1. The dose number is defined as follows:
Dose number=theoretical dose in mg/water solubility×250 ml.
For example, if the theoretical dose of the drug is 20 mg per dose. […] Another example of a water insoluble pharmaceutical includes the compound of Formula I

Where only a bound is given, the exact number is not on record here.

In the case of `CC[C@H](C)C(=O)O[C@H]1C[C@@H](C)C=C2C=C[C@H](C)[C@H](CC[C@@H]3C[C@@H](O)CC(=O)O3)[C@H]21` [lovastatin], the “dose number (theoretical dose in mg/water solubility×250 ml)” value is over 8.

These data come from patent US20090111997A1, “Method of Generating Amorphous Solid for Water-Insoluble Pharmaceuticals” (priority 2005, published 2009).
